Measurements reported in patent US4179337A, “Non-immunogenic polypeptides” (priority 1977, dated 1979).

Tests used:
[1] = test system: rats made diabetic utilizing alloxan injections; assay: PEG insulin rat assay, alloxan diabetic rats; type: in vivo; design: % Drop Over Control: concentration or dose not given beside the values
[2] = test system: rabbit antiserum after immunization with catalase; assay: Gel diffusion test for precipitating antibodies; type: binding; details: antiserum against native catalase, tested undiluted and 1/10
Procedure: (§1) Immunization - New Zealand, white adult female rabbits were immunized by the intravenous route with a 1.5 mg/ml. stock solution of beef liver catalase for a period of 4 weeks by which time it received a total of 55 mg. of catalase. Rabbits were bled by cardiac puncture 7 and 14 days after completion of the immunization schedule. Approximately 1 month later, rabbits were injected with 5 mg. of the appropriate antigen and bled by cardiac puncture 1 week after receiving the booster injection.
(§2) Rabbit antisera obtained after initial or booster immunization were assayed in vitro for precipitating (1) and complement fixing activities (2,3). Each antiserum (undiluted, 1/10, 1/50) was set up in gel diffusion plates (1.0% Noble Agar in physiological saline with 1.0% azide added as preservative) against both catalase and PEG-HTA-catalase solutions (concentrations ranging from 1000γ/ml. to 5γ/ml). Plates were incubated at room temperature for 48 hours and at 4° C. for 3-4 days. Complement fixing activity of the heat inactivated, sheep red blood cell absorbed antisera was determined using the Microtiter Complement-fixation test (Cooke Engineering Co., Alexandria, Virginia). Antisera were run 1:1 and 1:10 dilutions against catalse and PEG-HTA-catalase dilutions ranging from 1000γ/ml. down to 15γ/ml. Plates were read for presence or absence of hemolysis following incubation at 37° C. for 30 minutes.

[3] = test system: rabbit antiserum after immunization with catalase; assay: Microtiter complement-fixation test; type: binding; details: initial and booster sera
Procedure: as §1, §2

test rabbits = assay: PEG-HTA-insulin assay, blood sugar levels in test rabbits (Glucostat method); type: in vivo, rabbit; details: after 3 hours, same amount of insulin injected
Procedure: Preliminary insulin and PEG-HTA-insulin containing the same amount of insulin were injected into test rabbits and blood sugar levels measured by the "Glucostat" method (Worthington Biochemical Corporation, Freehold, N. J.).

insulin antiserum = assay: PEG-insulin immunoassay (radioimmunoassay); type: binding
Procedure: PEG-HTA-Insulin was prepared in accordance with Example II and tested for antigenic activity by the method of […]

[4] = Insulin activity (animal assay); details: in vivo
[5] = intravenous, 8 hrs (animals fed after 5 hrs)

With “Insulin PEG-4-Hydroxy-1,3,5-Triazin-6-yl Conjugate [PEG HTA Insulin (pH 9.2)]” the “Blood Glucose Level” value ([1]; intravenous, 0 hrs (initial level)) was 305 mg/100 ml, the “% Drop Over Control” value ([1]; intravenous, 2 hrs) was 76.2% and the “Blood Glucose Level” value ([1]; intravenous, 2 hrs) was 72.5 mg/100 ml. For the same substance, the “Drop Over Initial Level” value ([1]; intravenous, 2 hrs) was 232 mg/100 ml, the “% Drop Over Control” value ([1]; intravenous, 4 hrs) was 66.7% and the “Blood Glucose Level” value ([1]; intravenous, 4 hrs) was 101.5 mg/100 ml. For the same substance, the “Drop Over Initial Level” value ([1]; intravenous, 4 hrs) was 203.5 mg/100 ml, the “% Drop Over Control” value [1, 5] was 24.6% and the “Blood Glucose Level” value [1, 5] was 230 mg/100 ml. For the same substance, the “Drop Over Initial Level” value [1, 5] was 75 mg/100 ml.

In the case of “Hydrogen-peroxide: hydrogen-peroxide oxidoreductase [Unmodified catalase]”, the “precipitating antibodies, gel diffusion” value [2] was “positive” and the complement-fixing activity [3] was “positive”.

In the case of “Hydrogen Peroxide: Hydrogen-Peroxide Oxidoreductase (1.11.1.6; "Catalase")-2-PEG-4-Hydroxy-1,3,5-Triazin-6-yl Conjugate [modified catalase]”, the “precipitating antibodies, gel diffusion” value [2] was “no evidence of any cross-reactions” and the complement-fixing activity [3] was “negative”.

With insulin [Unmodified Insulin] the “Blood Glucose Level” value ([1]; intramuscularly, 0 hrs (initial level)) was 410 mg/100 ml, the “% Drop Over Control” value ([1]; intramuscularly, 1 hr) was 32.9% and the “Blood Glucose Level” value ([1]; intramuscularly, 1 hr) was 295 mg/100 ml. For the same substance, the “Drop Over Initial Level” value ([1]; intramuscularly, 1 hr) was 135 mg/100 ml, the “% Drop Over Control” value ([1]; intramuscularly, 2 hrs) was 34.1% and the “Blood Glucose Level” value ([1]; intramuscularly, 2 hrs) was 270 mg/100 ml. The “Drop Over Initial Level” value ([1]; intramuscularly, 2 hrs) was 140 mg/100 ml, the “% Drop Over Control” value ([1]; intramuscularly, 4 hrs) was 29.2% and the “Blood Glucose Level” value ([1]; intramuscularly, 4 hrs) was 290 mg/100 ml. For the same substance, the “Drop Over Initial Level” value ([1]; intramuscularly, 4 hrs) was 120 mg/100 ml, the “% Drop Over Control” value ([1]; intramuscularly, 6 hrs) was 02.4% and the “Blood Glucose Level” value ([1]; intramuscularly, 6 hrs) was 400 mg/100 ml. For the same substance, the “Drop Over Initial Level” value ([1]; intramuscularly, 6 hrs) was 10 mg/100 ml, the Blood Glucose Level (test rabbits) was 20 % of normal and the “Insulin Antibodies Activity (radioimmunoassay)” value (insulin antiserum) was 127 μ units/ml. For the same substance, the “Insulin Activity (animal assay)” value [4] was 137 μ units/ml.
